What all share (assay type): physicochemical
Series [1] can be described thus: Physical stability upon exposure to AAC (40° C./75% RH) for 2 days, remeasured by HT-XRPD. Conditions: for solid form conversion upon exposure to AAC: HT-XRPD. The method, then: (§1) The solvent equilibration experiments were incubated in the Crystal16™ parallel crystallization reactor at 5, 25 and 50° C. for 3 days. Up on completion of the ageing time, the solids were separated from the liquid phases, dried at ambient conditions and under vacuum, and analyzed by HT-XRPD. Afterwards, all solids were exposed to AAC (40° C./75% RH) for 2 days and remeasured by HT-XRPD. The liquids were analyzed by Karl Fisher to estimate the water content. The experimental details and results are reported in Table 9, Table 10 and Table 11.
(§2) Upon completion of the equilibration time, the solids were dried at ambient conditions and under vacuum (5 mbar/50° C./overnight) and analyzed by HT-XRPD. Afterwards, all solids were exposed to AAC (40° C./75% RH) for 2 days and remeasured by HT-XRPD.
Table 11: Experimental details and results of equilibration experiments performed at 50° C. for 1 week. Upon completion of the equilibration time, the solids were dried at ambient conditions and under vacuum (5 mbar/RT/overnight) and analyzed by HT-XRPD. Afterwards, all solids were exposed to AAC (40° C./75% RH) for 2 days and remeasured by HT-XRPD.

The nature of series [2]: Physical stability upon drying under vacuum, HT-XRPD. The method, then:
as §1, §2
Thermocycling experiments were started by preparing suspensions of Form B1 in the selected anhydrous solvents. The suspensions were subjected to a temperature profile between 50 and 5° C., followed by aging at 25° C. for 72 hours. Upon completion of the aging time, the solids were separated from the liquid phases, dried at ambient conditions and under vacuum, and measured by HT-XRPD. When solutions were recovered, those were left to evaporate at ambient conditions.

Series [3] in a line: Physical stability of Form B1 at three storage conditions (Example 10). Here is the method: Solid samples of Form B 1 was incubated at three different conditions to test physical stability: 80° C., closed vial, 24 hours; 60° C./29% RH, open vial, 48 hours; and 40° C./75% RH, open vial, 48 hours. The solids recovered after the stability studies were analyzed by HIR-XRPD, TGMS, and DSC.

Series [4] is described as follows: Investigation under variable RH levels by DVS and XRPD. Here is the method:
The powder data were collected on D8 Advance diffractometer using Cu Kα1 radiation (1.54056 Å) with germanium monochromator at 30° C. using the SYCOS H-HOT hot humid chamber produced by Ansyco GmbH. The data were collected in the Bragg-Brentano geometry (locked coupled) from 8 to 35θ 2θ on the flat sample holder (without rotation) on solid state LynxEye detector with 0.018θ per step with 1 sec/step scan speed. After reaching demanded humidity the sample was relaxed for 5 minutes before measurement. The sample was optionally measured with 2 seconds per step and in the last measurement at RH 000 the relaxation time was elongated to 30 min.

The mark [5] stands for this setting: sample recovered from thermocycling in ethyl acetate.

Each structure is given as a SMILES string. “Also recorded” adds a separate entry of the source.

Take `CC(C)[C@@H](CC[C@@H](C)[C@H]1CCC2C3C(CC[C@@]21C)[C@@]1(C)CC[C@H](NCCCNCCCCN)C[C@@H]1C[C@H]3O)OS(=O)(=O)O.O=P(O)(O)O` (stereo in doubt) [Form D, squalamine phosphate]: in series [1], the “physical stability upon exposure to AAC” value was “physically unstable”; the “solid form conversion upon exposure to AAC” value was “converted to a mixture containing Form A1 and an unknown phase”.

For `CC(C)[C@@H](CC[C@@H](C)[C@H]1CC[C@H]2[C@@H]3[C@H](O)C[C@H]4C[C@@H](NCCCNCCCCN)CC[C@]4(C)[C@H]3CC[C@]12C)OS(=O)(=O)O.O=P(O)(O)O` [Form A1, squalamine phosphate], in series [2] (vacuum-dried, in some cases), the “solid form conversion in vacuum-dried solids of the hydrate screen” value was “converted to the mixed hydrate/solvate Form A2, or to the low-degree hydrates B1 and B2”.

Regarding `CC(C)[C@@H](CC[C@@H](C)[C@H]1CC[C@H]2[C@@H]3[C@H](O)C[C@H]4C[C@@H](NCCCNCCCCN)CC[C@]4(C)[C@H]3CC[C@]12C)OS(=O)(=O)O.O=P(O)(O)O` [Form A2, squalamine phosphate], the “physical stability upon exposure to AAC” value in series [1] is recorded as “physically unstable”. In addition, the “solid form conversion upon exposure to AAC” value in series [1] (listed as A2) is listed as “converted to Form A1”.

Turning to `CC(C)[C@@H](CC[C@@H](C)[C@H]1CC[C@H]2[C@@H]3[C@H](O)C[C@H]4C[C@@H](NCCCNCCCCN)CC[C@]4(C)[C@H]3CC[C@]12C)OS(=O)(=O)O.O=P(O)(O)O` [Form B1, squalamine phosphate], in series [3], the “RH at which the form already absorbs water, converting to Form A1” value worked out at 29 % RH. The “Mass loss (%)” value in series [3] (TGMS of solid recovered after 40° C./75% RH, open vial 48 h) was found to be 8.9%; in series [3] (TGMS of solid recovered after 60° C./29% RH, open vial 48 h) it was 9.0%; in series [3] (TGMS of solid recovered after 80° C., closed vial, 24 h), 1.8%. The “solid form conversion upon exposure to AAC” value in series [1] (listed as B1) is “converted to Form A1”.

In the case of `CC(C)[C@@H](CC[C@@H](C)[C@H]1CC[C@H]2[C@@H]3[C@H](O)C[C@H]4C[C@@H](NCCCNCCCCN)CC[C@]4(C)[C@H]3CC[C@]12C)OS(=O)(=O)O.O=P(O)(O)O` [Form B2, squalamine phosphate], in series [2] (setting [5]), the “physical stability upon drying” value is on record as “not physically stable”; the “solid form conversion upon drying” value is “converted to a mixture of Forms A1 and D”. In addition, the “physical stability upon drying” value in series [2] (samples recovered from 1-propanol and THE) is “stable”. Also, in series [1] (listed as B2), the “solid form conversion upon exposure to AAC” value was “converted to Form A1; also recorded: conversion to Form A1”.

`CC(C)[C@@H](CC[C@@H](C)[C@H]1CC[C@H]2[C@@H]3[C@H](O)C[C@H]4C[C@@H](NCCCNCCCCN)CC[C@]4(C)[C@H]3CC[C@]12C)OS(=O)(=O)O.O=P(O)(O)O` [Form C, squalamine phosphate]: the “behaviour on release of water at low RH levels or at high temperature” value in series [4] was “converting to Form A1”.

Consider `CC(C)[C@@H](CC[C@@H](C)[C@H]1CC[C@H]2[C@@H]3[C@H](O)C[C@H]4C[C@@H](NCCCNCCCCN)CC[C@]4(C)[C@H]3CC[C@]12C)OS(=O)(=O)O.O=P(O)(O)O` [Form E, squalamine phosphate], for which, in series [2] (5 mbar/50° C./overnight, solid from thermocycling in methanol), the “solid form conversion upon drying under vacuum” value is “converted to Form F; also recorded: conversion to a poorly crystalline phase, classified as Form F”. Moreover, the “Physical Stability” value in series [2] (upon drying at 50° C.) is reported as “Unstable upon”. Besides, the “solid form conversion upon exposure to AAC” value in series [1] (listed as E) was “converted to Form A1”.

For the molecule `CC(C)[C@@H](CC[C@@H](C)[C@H]1CC[C@H]2[C@@H]3[C@H](O)C[C@H]4C[C@@H](NCCCNCCCCN)CC[C@]4(C)[C@H]3CC[C@]12C)OS(=O)(=O)O.O=P(O)(O)O` [Form F, squalamine phosphate], the “solid form conversion upon exposure to AAC” value in series [1] (listed as F) is recorded as “converted to Form A1”.

These data come from patent US20230234983A1, “SQUALAMINE CRYSTALLINE POLYMORPHS” (Enterin, Inc., priority 2022, published 2023).
